{"source": "PubChem BioAssay AID330", "about": "(DTP/NCI, 2004)", "system": "P388 leukemia ip, CD2F1 mice, survival T/C", "assay": "NCI In Vivo Anticancer Drug Screen. Data for tumor model P388 Leukemia (intraperitoneal) in CD2F1 (CDF1) mice", "conditions": "endpoint: median survival time, higher = longer survival", "in_short": "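Mice carrying the transplanted tumor received test compound or vehicle. Survival was recorded in each group, and the value is the treated-group measurement divided by that of the vehicle-treated control group.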", "key": {"[1]": {"conditions": "dose: 50.0 mg/kg/injection, schedule: Q04DX003 (ip), vehicle: saline with Tween-80"}, "[2]": {"conditions": "dose: 100.0 mg/kg/injection, schedule: Q01DX009 (ip), vehicle: saline with Tween-80"}, "[3]": {"conditions": "dose: 100.0 mg/kg/injection, schedule: Q04DX003 (ip), vehicle: saline with Tween-80"}, "[4]": {"conditions": "dose: 200.0 mg/kg/injection, schedule: Q04DX003 (ip), vehicle: saline with Tween-80"}, "[5]": {"conditions": "dose: 400.0 mg/kg/injection, schedule: Q04DX003 (ip), vehicle: saline with Tween-80"}, "[6]": {"conditions": "dose: 50.0 mg/kg/injection, schedule: Q01DX005 (ip), vehicle: Klucel (hydroxypropylcellulose) (HPC)"}, "[7]": {"conditions": "dose: 100.0 mg/kg/injection, schedule: Q01DX005 (ip), vehicle: Klucel (hydroxypropylcellulose) (HPC)"}, "[8]": {"conditions": "dose: 200.0 mg/kg/injection, schedule: Q01DX005 (ip), vehicle: Klucel (hydroxypropylcellulose) (HPC)"}, "[9]": {"conditions": "dose: 60.0 mg/kg/injection, schedule: Q01DX005 (ip), vehicle: saline with Tween-80"}, "[10]": {"conditions": "dose: 120.0 mg/kg/injection, schedule: Q01DX005 (ip), vehicle: saline with Tween-80"}}, "note": "Values joined by “and” are separate entries in the source; they are usually repeats but may differ in a detail not shown here. Identical values can stand only once. Inconclusive results and toxic doses are left out.", "data": [{"smiles": "Cc1ccc(NC(=O)N(C)N=O)cc1", "values": [{"measurement": "T/C", "setting": "dose: 50.0 mg/kg/injection, schedule: Q01DX009 (ip), vehicle: saline with Tween-80", "result": "95 % of control"}, {"measurement": "T/C", "setting": "[1]", "result": "100 % of control"}, {"measurement": "T/C", "setting": "[2]", "result": "90 % of control"}, {"measurement": "T/C", "setting": "[3]", "result": "100 % of control"}, {"measurement": "T/C", "setting": "dose: 200.0 mg/kg/injection, schedule: Q01DX009 (ip), vehicle: saline with Tween-80", "result": "90 % of control"}, {"measurement": "T/C", "setting": "[4]", "result": "100 % of control"}]}, {"smiles": "CN(C)N=Nc1ccc(S(=O)(=O)Nc2ncccn2)cc1", "values": [{"measurement": "T/C", "setting": "dose: 8.75 mg/kg/injection, schedule: Q01DX009 (ip), vehicle: saline with Tween-80", "result": "107 % of control"}, {"measurement": "T/C", "setting": "dose: 35.0 mg/kg/injection, schedule: Q01DX009 (ip), vehicle: saline with Tween-80", "result": "160 % of control"}, {"measurement": "T/C", "setting": "[1]", "result": "96 % of control"}, {"measurement": "T/C", "setting": "[5]", "result": "111 % of control and 92 % of control"}]}, {"smiles": "CC(C)c1ccc2nc3ccc(C(=O)NCCN(C)C)cn3c(=O)c2c1", "values": [{"measurement": "T/C", "setting": "dose: 60.0 mg/kg/injection, schedule: Q01DX005 (ip), vehicle: Klucel (hydroxypropylcellulose) (HPC)", "result": "105 % of control"}, {"measurement": "T/C", "setting": "dose: 120.0 mg/kg/injection, schedule: Q01DX005 (ip), vehicle: Klucel (hydroxypropylcellulose) (HPC)", "result": "101 % of control"}]}, {"smiles": "CC1C(=O)OC2C1CCC1(C)C=CC(=O)C(C)C21", "note": "(stereo not given)", "values": [{"measurement": "T/C", "setting": "dose: 12.5 mg/kg/injection, schedule: Q04DX002 (ip), vehicle: saline with Tween-80", "result": "110 % of control"}, {"measurement": "T/C", "setting": "dose: 25.0 mg/kg/injection, schedule: Q04DX002 (ip), vehicle: saline with Tween-80", "result": "103 % of control"}]}, {"smiles": "CC1CP(c2ccccc2)(c2ccccc2)(c2ccccc2)OC1(C(=O)c1ccccc1)c1ccccc1", "note": "(stereo not given)", "values": [{"measurement": "T/C", "setting": "dose: 6.25 mg/kg/injection, schedule: Q01DX009 (ip), vehicle: saline with Tween-80", "result": "100 % of control"}, {"measurement": "T/C", "setting": "dose: 25.0 mg/kg/injection, schedule: Q01DX009 (ip), vehicle: saline with Tween-80", "result": "88 % of control"}]}, {"smiles": "O=C(O)c1ccc([N+](=O)[O-])cc1O.O=C(O)c1ccc([N+](=O)[O-])cc1O.[Cu]", "values": [{"measurement": "T/C", "setting": "dose: 6.25 mg/kg/injection, schedule: Q01DX001 (ip), vehicle: saline with Tween-80", "result": "100 % of control"}, {"measurement": "T/C", "setting": "dose: 12.5 mg/kg/injection, schedule: Q01DX001 (ip), vehicle: saline with Tween-80", "result": "103 % of control"}, {"measurement": "T/C", "setting": "dose: 25.0 mg/kg/injection, schedule: Q01DX001 (ip), vehicle: saline with Tween-80", "result": "97 % of control"}]}, {"smiles": "CC1CN1P(=S)(Oc1ccccc1)N1CC1C", "note": "(stereo not given)", "values": [{"measurement": "T/C", "setting": "[2]", "result": "110 % of control"}, {"measurement": "T/C", "setting": "[3]", "result": "109 % of control"}, {"measurement": "T/C", "setting": "[4]", "result": "118 % of control"}, {"measurement": "T/C", "setting": "[5]", "result": "122 % of control"}]}, {"smiles": "O=C(O)C1CCCN1C(=O)OCC1c2ccccc2-c2ccccc21", "note": "(stereo not given)", "values": [{"measurement": "T/C", "setting": "[6]", "result": "99 % of control"}, {"measurement": "T/C", "setting": "[7]", "result": "99 % of control"}, {"measurement": "T/C", "setting": "[8]", "result": "95 % of control"}]}, {"smiles": "CSc1nc2c(=O)[nH]cnc2s1", "values": [{"measurement": "T/C", "setting": "[9]", "result": "105 % of control"}, {"measurement": "T/C", "setting": "[10]", "result": "102 % of control"}, {"measurement": "T/C", "setting": "dose: 240.0 mg/kg/injection, schedule: Q01DX005 (ip), vehicle: saline with Tween-80", "result": "96 % of control"}]}, {"smiles": "CN(C)C1c2cc(Br)ccc2-c2ccc(Br)cc21", "values": [{"measurement": "T/C", "setting": "[6]", "result": "95 % of control"}, {"measurement": "T/C", "setting": "[7]", "result": "105 % of control"}, {"measurement": "T/C", "setting": "[8]", "result": "110 % of control"}]}, {"smiles": "CCOC(=O)c1cn2ccccc2c(C(C)=O)c1=N", "values": [{"measurement": "T/C", "setting": "dose: 100.0 mg/kg/injection, schedule: Q04DX003 (ip), vehicle: saline", "result": "100 % of control"}, {"measurement": "T/C", "setting": "dose: 200.0 mg/kg/injection, schedule: Q04DX003 (ip), vehicle: saline", "result": "100 % of control"}, {"measurement": "T/C", "setting": "dose: 400.0 mg/kg/injection, schedule: Q04DX003 (ip), vehicle: saline", "result": "94 % of control"}]}, {"smiles": "CSC(=CC(=O)c1ccco1)SC", "values": [{"measurement": "T/C", "setting": "[9]", "result": "98 % of control"}, {"measurement": "T/C", "setting": "[10]", "result": "96 % of control"}]}, {"smiles": "CC(C)(C)c1cc2c(=O)o[s+]3oc(=O)c(c1)c23", "values": [{"measurement": "T/C", "setting": "dose: 6.25 mg/kg/injection, schedule: Q01DX009 (ip), vehicle: Klucel (hydroxypropylcellulose) (HPC)", "result": "107 % of control"}, {"measurement": "T/C", "setting": "dose: 12.5 mg/kg/injection, schedule: Q01DX009 (ip), vehicle: Klucel (hydroxypropylcellulose) (HPC)", "result": "104 % of control"}, {"measurement": "T/C", "setting": "dose: 25.0 mg/kg/injection, schedule: Q01DX009 (ip), vehicle: Klucel (hydroxypropylcellulose) (HPC)", "result": "111 % of control"}]}, {"smiles": "NC(=S)N/N=C/C1=C(Cl)c2ccccc2C1", "values": [{"measurement": "T/C", "setting": "dose: 6.25 mg/kg/injection, schedule: Q01DX005 (ip), vehicle: saline with Tween-80", "result": "109 % of control"}, {"measurement": "T/C", "setting": "dose: 12.5 mg/kg/injection, schedule: Q01DX005 (ip), vehicle: saline with Tween-80", "result": "119 % of control"}]}, {"smiles": "COc1cccc2c(NCCCCCCCCNc3c4ccccc4nc4c(OC)cccc34)c3ccccc3nc12", "values": [{"measurement": "T/C", "setting": "dose: 1.25 mg/kg/injection, schedule: Q01DX009 (ip), vehicle: lactic acid", "result": "169 % of control"}, {"measurement": "T/C", "setting": "dose: 2.5 mg/kg/injection, schedule: Q01DX009 (ip), vehicle: lactic acid", "result": "189 % of control"}, {"measurement": "T/C", "setting": "dose: 5.0 mg/kg/injection, schedule: Q01DX009 (ip), vehicle: other", "result": "154 % of control"}]}]}
